Read-outs that look alike come from different tables or passages of the source.
Columns and labels:
[1] = system: MES SA DX (MES SA cell line with marked multi-drug resistance); assay: In vitro cytotoxicity assay (CellTiter-Glo, 72 hours), MES SA DX
[2] = system: HEK 293T (human embryonic kidney cancer cell line); assay: In vitro cytotoxicity assay (CellTiter-Glo, 72 hours), HEK 293T; assay type: cell-based
[3] = system: MES SA (uterine sarcoma cell line); assay: In vitro cytotoxicity assay (CellTiter-Glo, 72 hours), MES SA; assay type: cell-based
[4] = Homo sapiens, MES-SA, 72 h, read-out: MES SA DX, IC50 Value in nM
[5] = Homo sapiens, HEK-293T, 72 h, read-out: HEK 293T, IC50 Value in nM
[6] = Homo sapiens, MES-SA, 72 h, read-out: MES SA, IC50 Value in nM
[7] = Homo sapiens, MES-SA, 72 h, read-out: MES SA DX, IC50
[8] = Homo sapiens, HEK-293T, 72 h, read-out: HEK 293T, IC50
[9] = Homo sapiens, MES-SA, 72 h, read-out: MES SA, IC50
[10] = read-out: MES SA DX, IC50 Value in nM, Table 2, 72 hours, CellTiter-Glo
[11] = Table 2, 72 hours, CellTiter-Glo, read-out: HEK 293T, IC50 Value in nM
[12] = Table 2, 72 hours, CellTiter-Glo, read-out: MES SA, IC50 Value in nM

With `CCOC(=O)[C@@H](C)CC(Cc1ccccc1)NC(=O)c1nc([C@@H](C[C@H](C(C)C)N(C)C(=O)[C@@H](NC(=O)[C@H]2CCCCN2C)C(C)C)OC(C)=O)sc1CCOCc1ccccc1` (stereo in doubt) [Tb110, Ethyl (2S,4S)-4-[({2-[(1R,3R)-1-acetoxy-4-methyl-3-{methyl[(2S)-3-methyl-2-{[(1-methylpiperidin-2-yl)carbonyl]amino}butanoyl]amino}pentyl]-5-[2-(benzyloxy)ethyl]-1,3-thiazol-4-yl}carbonyl)-amino]-2-methyl-5-phenylpentanoate] the IC50 [1, 4] was > 400 nM, the IC50 [2, 5] was 1.87 nM and the IC50 [3, 6] was 3.09 nM.

For `CC(=O)O[C@H](C[C@H](C(C)C)N(C)C(=O)[C@@H](NC(=O)[C@H]1CCCCN1C)C(C)C)c1nc(C(=O)NC(Cc2ccccc2)C[C@H](C)C(=O)O)c(CCOCc2ccccc2)s1` (stereo in doubt) [Tb111, (2S,4S)-4-[({2-[(1R,3R)-1-acetoxy-4-methyl-3-{methyl[(2S)-3-methyl-2-{[(1-methylpiperidin-2-yl)carbonyl]amino}butanoyl]amino}pentyl]-5-[2-(benzyloxy)ethyl]-1,3-thiazol-4-yl}carbonyl)-amino]-2-methyl-5-phenylpentanoic acid], the “cytotoxicities against the marked drug resistant cancer cell line MES SA DX (in words)” value (“cytotoxicities” below) [1] was “relatively potent (low nanomolar)”, the IC50 [1, 7] was 1.54 nM and the IC50 [1, 4] was 1.54 nM. It also gave an IC50 [2, 8] of 0.006 nM, an IC50 [2, 5] of 0.006 nM and an IC50 [3, 9] of 0.04 nM. It also gave an IC50 [3, 6] of 0.04 nM.

`CCOC(=O)C(C)CC(Cc1ccccc1)NC(=O)c1nc([C@@H](CC(C(C)C)N(C)C(=O)[C@@H](NC(=O)[C@H]2CCCCN2C)C(C)C)OC(C)=O)sc1CCO` (stereo in doubt) [Tb112, Ethyl (2R,4S)-4-[({2-[(1R,3S)-1-acetoxy-4-methyl-3-{methyl[(2S)-3-methyl-2-{[(1-methylpiperidin-2-yl)carbonyl]amino}butanoyl]amino}pentyl]-5-(2-hydroxyethyl)-1,3-thiazol-4-yl}carbonyl)amino]-2-methyl-5-phenylpentanoate] was tested, and the IC50 [1, 7] was > 400 nM, the IC50 [1, 4] was > 400 nM and the IC50 [2, 8] was 0.09 nM. It also gave an IC50 [2, 5] of 0.09 nM, an IC50 [3, 9] of 0.1 nM and an IC50 [3, 6] of 0.1 nM.

With `CC(=O)O[C@H](CC(C(C)C)N(C)C(=O)[C@@H](NC(=O)[C@H]1CCCCN1C)C(C)C)c1nc(C(=O)NC(Cc2ccccc2)CC(C)C(=O)O)c(CCO)s1` (stereo in doubt) [Tb113, (2R,4S)-4-[({2-[(1R,3S)-1-Acetoxy-4-methyl-3-{methyl[(2S)-3-methyl-2-{[(1-methylpiperidin-2-yl)-carbonyl]amino}butanoyl]amino}pentyl]-5-(2-hydroxyethyl)-1,3-thiazol-4-yl}carbonyl)amino]-2-methyl-5-phenylpentanoic acid] the IC50 [1, 4] was > 400 nM, the IC50 [2, 5] was 0.315 nM and the IC50 [3, 6] was 5.79 nM.

In the case of `COC(=O)[C@@H](CC(Cc1ccccc1)NC(=O)c1csc([C@@H](CC(C(C)C)N(C)C(=O)[C@@H](NC(=O)[C@H]2CCCCN2C)C(C)C)OC(C)=O)n1)NC(=O)OCc1ccccc1` (stereo in doubt) [Tb115, Methyl(2R,4R)-4-[({2-[(1R,3S)-1-acetoxy-4-methyl-3-{methyl[(2S)-3-methyl-2-{[(1-methylpiperidin-2-yl)carbonyl]amino}butanoyl]amino}pentyl]-1,3-thiazol-4-yl}carbonyl)amino]-2-{[(benzyloxy)carbonyl]amino}-5-phenylpentanoate], the “cytotoxicities” value [1] is reported as “relatively potent (low nanomolar)”, the IC50 [1, 7] is reported as 13.8 nM and the IC50 [1, 4] is reported as 13.8 nM. The IC50 [2, 8] was 0.01 nM, the IC50 [2, 5] was 0.01 nM and the IC50 [3, 9] was 0.02 nM. The IC50 [3, 6] was 0.02 nM.

In the case of `COC(=O)C(CC(Cc1ccccc1)NC(=O)c1csc([C@@H](CC(C(C)C)N(C)C(=O)[C@@H](NC(=O)[C@H]2CCCCN2C)C(C)C)OC(C)=O)n1)NC(=O)OCc1ccccc1` (stereo in doubt) [Tb116, Methyl(2R,4R)-4-[({2-[(1R,3S)-1-acetoxy-4-methyl-3-{methyl[(2S)-3-methyl-2-{[(1-methylpiperidin-2-yl)carbonyl]amino}butanoyl]amino}pentyl]-1,3-thiazol-4-yl}carbonyl)amino]-2-{[(benzyloxy)carbonyl]amino}-5-phenylpentanoate], the “cytotoxicities” value [1] is reported as “relatively potent (low nanomolar)”, the IC50 [1, 7] is reported as 6 nM and the IC50 [1, 4] is reported as 6 nM. It also gave an IC50 [2, 8] of 0.003 nM, an IC50 [2, 5] of 0.003 nM and an IC50 [3, 9] of 0.007 nM. It also gave an IC50 [3, 6] of 0.007 nM.

In the case of `COC(=O)[C@@H](C)C[C@H](Cc1ccccc1)NC(=O)c1csc(CC[C@H](C(C)C)N(C)C(=O)[C@@H](NC(=O)[C@H]2CCCCN2C)C(C)C)n1` [PTb-D48], the IC50 [1, 4] is reported as > 1000 nM, the IC50 [2, 5] is reported as > 1000 nM and the IC50 [3, 6] is reported as > 1000 nM.

With `CC[C@H](C)[C@H](NC(=O)[C@H]1CCCCN1C)C(=O)N(C)[C@H](C[C@@H](OC(C)=O)c1nc(C(=O)N[C@@H](Cc2ccccc2)C[C@H](C)C(=O)O)cs1)C(C)C` [Tb1, N^14-desacetoxytubulysin H, reference compound] the IC50 [1, 10] was > 10 nM, the IC50 [2, 11] was 0.02 nM and the IC50 [3, 12] was 0.34 nM.

`COC(=O)[C@@H](C)C[C@H](Cc1ccccc1)NC(=O)c1csc([C@@H](C[C@H](C(C)C)N(C)C(=O)[C@@H](NC(=O)[C@H]2CCCCN2C)C(C)C)OC(C)=O)n1` [Tb32, reference compound] was tested, and the IC50 [1, 10] was 1.29 nM, the IC50 [2, 11] was 0.002 nM and the IC50 [3, 12] was 0.012 nM.

With `CCCCN1CCCC[C@@H]1C(=O)N[C@H](C(=O)N(C)[C@H](C[C@@H](OC(C)=O)c1nc(C(=O)N[C@@H](Cc2ccccc2)CC(CO)C(=O)OC)cs1)C(C)C)[C@@H](C)CC` (stereo partly drawn) [Tb56, Methyl (4R)-4-[({2-[(1R,3R)-1-acetoxy-3-{[(2S,3S)-2-({[(2R)-1-butylpiperidin-2-yl]carbonyl}amino)-3-methylpentanoyl](methyl)amino}-4-methylpentyl]-1,3-thiazol-4-yl}carbonyl)amino]-2-(hydroxy-methyl)-5-phenylpentanoate] the IC50 [1, 4] was > 1000 nM, the IC50 [2, 5] was > 1000 nM and the IC50 [3, 6] was > 1000 nM.

`CCCCN1CCCC[C@@H]1C(=O)N[C@H](C(=O)N(C)[C@H](C[C@@H](OC(C)=O)c1nc(C(=O)N[C@@H](Cc2cn(C)c3ccccc23)C[C@H](C)C(=O)OC)cs1)C(C)C)[C@@H](C)CC` [Tb57, Methyl (2S,4R)-4-[({2-[(1R,3R)-1-acetoxy-3-{[(2S,3S)-2-({[(2R)-1-butylpiperidin-2-yl]carbonyl}-amino)-3-methylpentanoyl](methyl)amino}-4-methylpentyl]-1,3-thiazol-4-yl}carbonyl)amino]-2-methyl-5-(1-methyl-1H-indol-3-yl)pentanoate] was tested, and the IC50 [1, 4] was > 1000 nM, the IC50 [2, 5] was > 1000 nM and the IC50 [3, 6] was > 1000 nM.

`COC(=O)[C@@H](C)C[C@H](Cc1ccccc1)NC(=O)c1cccc([C@@H](C[C@H](C(C)C)N(C)C(=O)[C@@H](NC(=O)[C@H]2CCCCN2C)C(C)C)OC(C)=O)n1` [Tb64, Methyl (2S,4R)-4-[({6-[(1R,3R)-1-acetoxy-4-methyl-3-{methyl[(2S)-3-methyl-2-({[(2R)-1-methyl-piperidin-2-yl]carbonyl}amino)butanoyl]amino}pentyl]pyridin-2-yl}carbonyl)amino]-2-methyl-5-phenylpentanoate] was tested, and the IC50 [1, 7] was 109 nM, the IC50 [1, 4] was 109 nM and the IC50 [2, 8] was 0.1 nM. The IC50 [2, 5] was 0.1 nM, the IC50 [3, 9] was 0.22 nM and the IC50 [3, 6] was 0.22 nM.

`CC(=O)O[C@H](C[C@H](C(C)C)N(C)C(=O)[C@@H](NC(=O)[C@H]1CCCCN1C)C(C)C)c1cccc(C(=O)N[C@@H](Cc2ccccc2)C[C@H](C)C(=O)O)n1` [Tb65, (2S,4R)-4-[({6-[(1R,3R)-1-Acetoxy-4-methyl-3-{methyl[(2S)-3-methyl-2-({[(2R)-1-methylpiperidin-2-yl]carbonyl}amino)butanoyl]amino}pentyl]pyridin-2-yl}carbonyl)amino]-2-methyl-5-phenylpentanoic acid] gave an IC50 [1, 4] of 279 nM, an IC50 [2, 5] of 2.04 nM and an IC50 [3, 6] of 2.44 nM.

With `COC(=O)[C@@H](C)C[C@H](Cc1ccccc1)NC(=O)c1nc([C@@H](C[C@H](C(C)C)N(C)C(=O)[C@@H](NC(=O)[C@H]2CCCCN2)C(C)C)OC(C)=O)sc1C` [Tb69, Methyl (2S,4R)-4-[({2-[(1R,3R)-1-acetoxy-4-methyl-3-{methyl[(2S)-3-methyl-2-{[(2R)-piperidin-2-ylcarbonyl]amino}butanoyl]amino}pentyl]-5-methyl-1,3-thiazol-4-yl}carbonyl)amino]-2-methyl-5-phenylpentanoate] the IC50 [1, 4] was > 1000 nM, the IC50 [2, 5] was > 1000 nM and the IC50 [3, 6] was 30.8 nM.

`COC(=O)[C@@H](C)C[C@H](Cc1ccccc1)NC(=O)c1nc([C@@H](C[C@H](C(C)C)N(C)C(=O)[C@@H](NC(=O)[C@H]2C[C@H](O)CCN2C)C(C)C)OC(C)=O)sc1C(C)C` [Tb74, Methyl (2S,4R)-4-[({2-[(1R,3R)-1-acetoxy-3-{[(2S)-2-({[(2R,4R)-4-hydroxy-1-methylpiperidin-2-yl]-carbonyl}amino)-3-methylbutanoyl](methyl)amino}-4-methylpentyl]-5-isopropyl-1,3-thiazol-4-yl}-carbonyl)amino]-2-methyl-5-phenylpentanoate] was tested, and the IC50 [1, 4] was > 400 nM, the IC50 [2, 5] was 2.46 nM and the IC50 [3, 6] was 5.32 nM.

In the case of `COC(=O)[C@@H](C)C[C@H](Cc1ccccc1)NC(=O)c1nc([C@@H](C[C@H](C(C)C)N(C)C(=O)[C@@H](NC(=O)[C@H]2CC(=O)CCN2C)C(C)C)OC(C)=O)sc1C(C)C` [Tb75, Methyl (2S,4R)-4-[({2-[(1R,3R)-1-acetoxy-4-methyl-3-{methyl[(2S)-3-methyl-2-({[(2R)-1-methyl-4-oxopiperidin-2-yl]carbonyl}amino)butanoyl]amino}pentyl]-5-isopropyl-1,3-thiazol-4-yl}carbonyl)-amino]-2-methyl-5-phenylpentanoate], the IC50 [1, 4] is reported as > 400 nM, the IC50 [2, 5] is reported as 127 nM and the IC50 [3, 6] is reported as ≥ 400 nM.
